For data set [1], the system named is FGFR1 in H520 cells (phospho-ERK1/2). The experiment in a line: Drug washout Western blot assay, H520 cells. The data set is classed as cell-based. The following applies: H520, 2 hours exposure; for reversible or irreversible inhibition of FGFR1 in cells: 100, 300 and 600 nM, with and without washout. (In general: In western blotting, separated proteins are transferred to a membrane and probed.)

The subject of the next data set is H520 cells. Briefly: Oxic and anoxic anti-proliferative activity of the prodrugs.
A further data set concerns SUM52 cells. Described as above. The following applies: for Hypoxic Cytotoxicity Ratio (HCR), SUM52: ratio of oxic and anoxic IC50.
Another data set has as its system SW780 cells. Described as above. The data set is classed as cell-based. The following applies: Homo sapiens, SW780; oxic conditions; read-out: Cellular Anti-proliferative IC50, SW780, Oxic.
[2] abbreviates: read-out: Cellular Anti-proliferative IC50, H520, Oxic, oxic conditions.
[3] abbreviates: read-out: Cellular Anti-proliferative IC50, SUM52, Anoxic, 4 hours of anoxia, remainder of assay oxic.
Setting [4] is: read-out: Cellular Anti-proliferative IC50, SUM52, Oxic, oxic conditions.

These results are taken from patent US11192890B2, “FGFR kinase inhibitors and pharmaceutical uses” (AUCKLAND UNISERVICES LIMITED, priority 2017, dated 2021).

By melting point is commonly meant the temperature of the solid-liquid transition. As a reminder, the IC50 is the concentration that gives 50% inhibition.

Where two headings read alike, the source gives them in different places.

Molecule `COc1cc(OC)c(Cl)c(N2Cc3cnc(Nc4ccc(F)cc4)nc3N(C3CCN(C(=O)/C=C/C[N+](C)(C)Cc4c([N+](=O)[O-])ncn4C)CC3)C2=O)c1Cl.O=C([O-])C(F)(F)F` [Compound 205, (E)-4-(4-(3-(2,6-dichloro-3,5-dimethoxyphenyl)-7-((4-fluorophenyl)amino)-2-oxo-3,4-dihydropyrimido[4,5-d]pyrimidin-1(2H)-yl)piperidin-1-yl)-N,N-dimethyl-N-((1-methyl-4-nitro-1H-imidazol-5-yl)methyl)-4-oxobut-2-en-1-aminium 2,2,2-trifluoroacetate] showed a melting point of 162 to 165 °C. Moreover, the “reversible or irreversible inhibition of FGFR1 in cells” value in data set [1] is listed as “reversible inhibitors”. The “concentration required to suppress FGFR1 signalling through phospho-ERK1/2” value in data set [1] (tested at 100, 300 and 600 nM) was > 300 nM. The IC50 with H520 cells (setting [2]) stood at 0.668 µM. Besides, the “Hypoxic Cytotoxicity Ratio (HCR), SUM52” value in the data set with SUM52 cells was 6. The 50% inhibitory concentration (IC50) in the data set with SUM52 cells (setting [3]) amounted to 0.004 µM. Moreover, the IC50 in the data set with SUM52 cells (setting [4]) was found to be 0.023 µM. Besides, in the data set on SW780 cells, the IC50 came out at 1.47 µM.
Molecule `COc1cc(OC)c(Cl)c(N2Cc3cnc(NC(C)C)nc3N([C@H]3CCN(C(=O)/C=C/C[N+](C)(C)Cc4c([N+](=O)[O-])ncn4C)C3)C2=O)c1Cl.[Br-]` [Compound 201, (S,E)-4-(3-(3-(2,6-dichloro-3,5-dimethoxyphenyl)-7-(isopropylamino)-2-oxo-3,4-dihydropyrimido[4,5-d]pyrimidin-1(2H)-yl)pyrrolidin-1-yl)-N,N-dimethyl-N-((1-methyl-4-nitro-1H-imidazol-5-yl)methyl)-4-oxobut-2-en-1-aminium bromide] returned a melting point of 184 to 187 °C. Further, the “reversible or irreversible inhibition of FGFR1 in cells” value in data set [1] is “reversible inhibitors”. Further, in the data set on H520 cells (setting [2]), the IC50 is 0.902 µM. Also, the “Hypoxic Cytotoxicity Ratio (HCR), SUM52” value in the data set with SUM52 cells was 16. The concentration for half-maximal inhibition (IC50) in the data set with SUM52 cells (setting [3]) was 0.038 µM. In the data set with SUM52 cells (setting [4]), the IC50 came to 0.612 µM. The IC50 in the data set on SW780 cells turned out to be 1.99 µM.
Molecule `COc1cc(OC)c(Cl)c(-c2cc3cnc(NC(C)C)cc3n(C3CCN(C(=O)/C=C/C[N+](C)(C)Cc4c([N+](=O)[O-])ncn4C)CC3)c2=O)c1Cl.[Br-]` [Compound 215, (E)-4-(4-(3-(2,6-dichloro-3,5-dimethoxyphenyl)-7-(isopropylamino)-2-oxo-1,6-naphthyridin-1(2H)-yl)piperidin-1-yl)-N,N-dimethyl-N-((1-methyl-4-nitro-1H-imidazol-5-yl)methyl)-4-oxobut-2-en-1-aminium bromide] came in with a melting point of 202 to 205 °C. Moreover, the “Hypoxic Cytotoxicity Ratio (HCR), H520” value in the data set on H520 cells (ratio of oxic and anoxic IC50) is recorded as 19. The IC50 with H520 cells (read-out: Cellular Anti-proliferative IC50, H520, Anoxic, 4 hours of anoxia, remainder of assay oxic) is 0.209 µM. In addition, in the data set on H520 cells (setting [2]), the IC50 amounted to 4.02 µM. For the same molecule, the “Hypoxic Cytotoxicity Ratio (HCR), SUM52” value in the data set on SUM52 cells came to 106. In addition, the 50% inhibitory concentration (IC50) in the data set with SUM52 cells (setting [3]) amounted to 0.011 µM. Also, the IC50 in the data set with SUM52 cells (setting [4]) worked out at 1.19 µM. Further, in the data set with SW780 cells, the IC50 was 3.5 µM.
